# Results from PMC7927014, “Novel Small Molecule Hsp90/Cdc37 Interface Inhibitors Indirectly Target K-Ras-Signaling” (Cancers, 2021).
# How the values were obtained:
# N-Hsp90/Cdc37 = biological target: T1, N-Hsp90/Cdc37 (Homo sapiens, UniProt P07900); assay: N-Hsp90/Cdc37 split Renilla luciferase assay (N-terminal Hsp90 fragment, residues 1-223); format: biochemical; conditions: cell lysate
# T1 construct: only the N-terminal ATP-ase domain of Hsp90 (N-Hsp90, residues 1-223); expressed in transfected cells; host or cells: HEK293 EBNA cells, cleared lysates
# Method: The Hsp90/Cdc37 split Renilla luciferase assay using the full length Hsp90 for the compound screening was described previously. […] After 48 h, the cells were trypsinized and washed with PBS. The harvested cells were lysed in 1 mL of the 1x lysis buffer provided in the Renilla Luciferase Reporter Assay System Kit from Promega (cat. E2820), and were incubated on ice for 10 min. The cell lysates were then cleared by centrifugation at 13,000× g for 1 min. […] After this, the screening/test compounds or DMSO—as indicated—were added to each well. In total, 5 µL NRL-Hsp90- or NRL-N-Hsp90-lysate was added to each well, one row at a time. Subsequently, the plate was incubated for 5 min at room temperature (RT). […] Just before the reading, 20 µL assay buffer containing 2× Renilla luciferase substrate (coelenterazine) was added. For the FIMM screening, sample wells were read on a PHERAstar plate reader (BMG LABTECH) at a gain level of 4000, after 10 s shaking, using a hypomorph of NRL-Hsp90. For the subsequent validations of the compounds, sample wells with the above-described assay constructs were read using a synergy H1 Hybrid Multi-Mode reader (BioTek) in the luminescence detection mode, as described previously in detail.
# K-RasG12V nanoclustering = assay: K-RasG12V nanoclustering-FRET (FLIM-FRET) in HEK cells; format: cell-based; conditions: 24 h, conglobatin A 2 μM, salinomycin 1.3 μM, 17-AAG 2 μM, CAY10585 10 μM, hit compounds indicated concentrations
# Method: In total, 80,000 HEK cells were seeded in 12-well plates containing sterilized 16-mm coverslips and 1 mL medium. The next day, the cells were transfected using jetPRIME or FuGENE HD transfection reagent. For the donor fluorophore-only samples, the cells were transfected with 500 ng mGFP-tagged RasG12V plasmid. For the nanoclustering-FRET pair samples, the cells were transfected with both the donor and acceptor constructs, i.e., pmGFP- and pmCherry- RasG12V at a plasmid ratio of 1:3, respectively, and a total of 800 ng plasmids. The next day, the cells were treated with either 0.1% DMSO vehicle control or the indicated concentrations of compounds diluted in DMEM or RPMI medium for 24 h. For the gene silencing studies, the cells were transfected with the indicated amounts of siRNAs, together with the FRET pair constructs. The plasmids and siRNA were diluted in the same jetPRIME transfection buffer, followed by the addition of jetPRIME. […] The lifetime of the mGFP donor fluorophore was measured using a fluorescence microscope (Zeiss AXIO Observer D1) equipped with a fluorescence lifetime imaging attachment (Lambert Instruments), as described previously in detail. The apparent FRET efficiency (Eapp) was calculated as Eapp = (1 − τDA/τD) × 100%, with the measured fluorescence lifetimes τDA of the FRET sample and the τD of the donor-only sample.
# MDA-MB-231 microtumors = assay: Chick chorioallantoic membrane (CAM) microtumor assay; format: in vivo, chick embryo; conditions: 5 days
# Method: The fertilized eggs were incubated at 37 °C in a 55% to 60% humidified egg hatcher incubator (MG100, Fiem). After 8 days, 2 million MDA-MB-231 cells were resuspended in 1× PBS and Matrigel (BD Biosciences) at a ratio of 1:1, and were then deposited within sterilized 7 mm diameter plastic rings cut from a plastic pipette (cat. no. LW4111, Alpha Laboratories Limited) on a surface of chicken embryo CAM. The xenografted tumors were treated with 20 µL 0.1% DMSO vehicle control or the test compound diluted in 1× PBS once a day, starting from 24 h after cell seeding. The microtumors were harvested after 5 days of treatment. The microtumors were collected in pre-weighted 1.5 mL Eppendorf tubes containing 500 µL PBS, and the tumor mass was determined by the difference of the weights.
# [1] = tested on: Hsp90 clients (C-Raf, Akt, ERK); assay: Western blotting of Hsp90 client proteins; format: cell-based; conditions: Western blot, 24 h; SK-BR-3, MDA-MB-231, MIA PaCa-2, HCC-44 (conglobatin A: MDA-MB-231)
# Method: The cells were trypsinized, washed with PBS, and lysed in RIPA buffer (cat no. 89900, ThermoFisher Scientific) containing protease and phosphatase inhibitors (cat. no. A32959, ThermoFisher Scientific) and 1 mM phenylmethylsulfonyl fluoride (PMSF). The cells in the RIPA buffer were placed on ice for 20 min, and were then sonicated in ice cold water for 5 min. The lysates were centrifuged at 4 °C, and their protein was quantified using a BCA kit (cat. no. 23225, ThermoFisher Scientific). Equal amounts of protein were separated by 10% SDS-PAGE, and were then transferred onto a nitrocellulose membrane (cat. no. NBA 083C001EA, Protran) using a wet transfer system (Bio-Rad) or semidry Transferblot Turbo Transfer System (Bio-Rad). After the transfer, the membranes were blocked for 30 min in 5% skimmed milk dissolved in 1× TBST, and then incubated with 1:2000 primary antibodies in 5% BSA in TBST at 4 °C overnight.
# The primary antibodies against HER-2 (cat no. MA5-140579) and Hsp70 (cat. no. MA3-006) were purchased from ThermoFisher Scientific; C-Raf (cat. no. sc-133); the galectin-3 (cat. no. sc-20157), Hsp90 (cat. no. sc-69703), Cdc37 (cat. no. sc-13129) were obtained from Santa Cruz Biotechnology; the Akt (cat. no. 9272S), ERK1/2 (cat. no. 9102S), and pERK1/2 (cat. no. 9101S) were obtained from Cell Signaling Technology; the HIF-1α (cat. no. NB-100-134) was obtained from Novus Biologicals; and the β-actin (cat. no. A1978) was obtained from Sigma-Aldrich.
# The next day, the membranes were washed three times in TBST for 10 min, and then incubated with secondary antibodies (1:5000) diluted in 5% skimmed milk in TBST for 1 h at RT. As secondary antibodies, we employed HRP-conjugated anti-mouse (cat. no. sc-2954, Santa Cruz Biotechnology) and anti-rabbit antibodies (cat. no. HAF008, R&D System). The protein bands were detected with a ChemiDoc MP instrument (Bio-Rad) after treatment with an ECL reagent (cat. no. 170-5061, BioRad). All of the antigens and molecular weights in kDa are labelled next to the blots on the figures. Uncropped Western blot data are attached as Figure S6.
SMILES,IC50 (N-Hsp90/Cdc37) [µM],K-RasG12V nanoclustering-FRET (K-RasG12V nanoclustering),"microtumor growth on CAM (MDA-MB-231 microtumors; MDA-MB-231, 10 μM)","expression of Hsp90 clients (C-Raf, Akt, ERK; pERK) [1]","microtumor growth on CAM (MDA-MB-231 microtumors; MDA-MB-231, 20 μM)"
"C/C1=C\[C@H](C)C[C@H](C)[C@H](Cc2cnco2)OC(=O)/C(C)=C/[C@H](C)C[C@H](C)[C@H](Cc2cnco2)OC1=O [conglobatin A, reference compound]",4.5 ± 0.8,selective inhibition of K-RasG12V-,significantly reduced,decreased pERK and Akt levels,–
"CCOc1ccc(C(=O)c2ccc(O)c(O)c2O)cc1 [×1540, 2,3,4-TRIHYDROXY-4'-ETHOXYBENZOPHENONE]",44 ± 9,displayed K-Ras-selectivity,–,dose-dependently decreased,significantly reduced
"N=C(CSS(=O)(=O)O)NCC12CC3CC(CC(C3)C1)C2 [×6506, [({N-[(adamantan-1-yl)methyl]carbamimidoyl}methyl)sulfanyl]sulfonic acid]",4.1 ± 0.4,displayed K-Ras-selectivity,–,dose-dependently decreased,significantly reduced
